Measurements reported in patent US6461997B1, “Triazole sulfones having herbicidal activity” (Monsanto Technology LLC, priority 1999, dated 2002).

Key:
[1] = system: BRAPP (broadleaf signalgrass); assay: Pre-plant incorporated (PPI) herbicidal activity, warm season; format: in vivo, Brachiaria platyphylla; settings: for PPI activity GR80, BRAPP: pre-plant incorporated, lowest tested rate with 80% or greater inhibition, about 14 days; for Percent inhibition BRAPP: PPI application
Description: (§1) In another set of tests, the pre-plant incorporated (PPI) activity of compounds of this invention was evaluated on the same species as for the pre-emergence tests described above. In the PPI tests the following procedure, designed to simulate PPI application, was used.
(§2) A pre-prepared topsoil mixture (described above) was placed in a pot and compacted to a depth of 1.0 to 1.25 cm from the top of the pot. Seeds of each of several monocotyledonous and dicotyledonous annual plant species were placed on top of the soil. A sufficient quantity of soil to cover the seeds and level fill the pot was weighed into an open container. A known amount of the test compound was dissolved or suspended in an organic solvent and applied by spraying to this cover soil. The cover soil was thoroughly mixed to distribute the test compound throughout the cover soil, and was then applied as a cover layer over the seeds. Untreated soil was used as a cover layer for control pots. After treatment the plants were placed in a greenhouse where they received 0.64 cm of overhead irrigation. All subsequent watering consisted of a light overhead mist and/or subirrigation as needed for germination and growth. Tables 9 and 10 below relate to warm season plant species which were placed after pre-emergence treatment in a greenhouse with a 30/21° C. day/night temperature regime. Tables 11 and 12 below relates to cool season plant species placed after pre-emergence treatment in a greenhouse or growth chamber with an 18/13° C. day/night temperature regime. Only the compounds of Examples 1, 6, 8, 11, 13 and 15-20 were included in PPI tests.
(§3) Approximately 14 days after planting and treating, the plants were observed and herbicidal efficacy recorded as percent inhibition by comparison with untreated plants.

[2] = system: AGSST (creeping bentgrass); assay: Pre-plant incorporated (PPI) herbicidal activity, cool season; format: in vivo, Agrostis stolonifera; settings: for PPI activity GR80, AGSST: pre-plant incorporated, lowest tested rate with 80% or greater inhibition, about 14 days; for Percent inhibition AGSST: weed, PPI application
Description: as §1, §2, §3

[3] = system: POLCO (wild buckwheat); assay: as above; format: in vivo, Polygonum convolvulus; settings: for PPI activity GR80, POLCO: pre-plant incorporated, lowest tested rate with 80% or greater inhibition, about 14 days; for Percent inhibition POLCO: weed, PPI application
Description: as §1, §2, §3

[4] = system: STEME (common chickweed); assay: as above; format: in vivo, Stellaria media; settings: for PPI activity GR80, STEME: pre-plant incorporated, lowest tested rate with 80% or greater inhibition, about 14 days; for Percent inhibition STEME: weed, PPI application
Description: as §1, §2, §3

[5] = system: LOLMG (annual ryegrass); assay: as above; format: in vivo, Lolium multiflorum; settings: for PPI activity GR80, LOLMG: pre-plant incorporated, lowest tested rate with 80% or greater inhibition, about 14 days; for Percent inhibition LOLMG: weed, PPI application
Description: as §1, §2, §3

[6] = system: GALAP (catchweed bedstraw); assay: as above; format: in vivo, Galium aparine; settings: for PPI activity GR80, GALAP: pre-plant incorporated, lowest tested rate with 80% or greater inhibition, about 14 days; for Percent inhibition GALAP: weed, PPI application
Description: as §1, §2, §3

[7] = system: SETVI (green foxtail); assay: Post-emergence herbicidal activity, cool season; format: in vivo, Setaria viridis; settings: abraded plants sprayed at 300, 100, 30 and 10 g/ha; about 14 days after treatment
Description: In another set of tests, the post-emergence activity of compounds of this invention was evaluated on the cool season species listed above. The following procedure was used.
A pre-prepared topsoil mixture (described above) was placed in a pot and compacted to a depth of 1.0 to 1.25 cm from the top of the pot. Seeds of each of several monocotyledonous and dicotyledonous annual plant species were placed on top of the soil. The seeds were covered with a mixture of 50% topsoil and 50% Rediearth™ in sufficient quantity to level-fill the pots. The pots were then placed on a greenhouse bench and subirrigated as needed.
When plants growing from the seeds had emerged and reached a suitable growth stage for post-emergence treatment, typically 9 to 14 days after planting, above-ground parts of the plants were subjected to a pre-treatment involving abrasion to create greater opportunity for foliar uptake of subsequently applied compounds. Abrasion was performed using garnet 200w particles applied with a Sears Craftsman hand-held sandblaster operated at approximately 850 kPa (50 psig) pressure.
A known amount of each test compound dissolved or suspended in an appropriate organic solvent was diluted with a 50:50 mix of acetone and water and applied to the plants by spraying with a standard spray nozzle in a spray volume of […] at a spray pressure of 511 kPa (30 psig). Only the compounds of Examples 1, 8-15 and 17-22 were included in post-emergence tests. Application rates for these compounds were 300, 100, 30 and 10 g/ha. Control plants were abraded but not sprayed.
After treatment the plants were placed in a greenhouse with an 18/13° C. day/night temperature regime and were subsequently watered as needed for growth. Approximately 14 days after treatment, the plants were observed and herbicidal efficacy recorded as percent inhibition by comparison with control plants. GR80 values were assigned for each compound as described above for the pre-emergence tests.

[8] = system: barley (HORVX); assay: Selectivity test, PPI, cool season crop; format: in vivo, Hordeunm vulgare; settings: PPI application
Description: as §2, §3
(§4) Additional pre-emergence and PPI tests were conducted by the procedures described above, on warm and cool season weed species in the presence of crop species, to assess herbicidal selectivity. Crop species included in warm season tests were corn (Zea mays, ZEAMX), rice (Oryza sativa, ORYSA) and soybean (Glycine max, GLYMX). Crop species included in cool season tests were wheat (Triticum aestivum, TRZAW), barley (Hordeunm vulgare, HORVX) and oilseed rape (Brassica napus, BRSNS).
(§5) Tables 15 and 16 relate to pre-emergence and PPI tests respectively on warm season species. Table 17 relates to pre-emergence tests on cool season species.

[9] = system: rice (ORYSA); assay: Selectivity test, PPI, warm season crop; format: in vivo, Oryza sativa; settings: PPI application
Description: as §2, §3, §4, §5

[10] = system: corn (ZEAMX); assay: Selectivity test, PPI, warm season crop; format: in vivo, Zea mays; settings: PPI application
Description: as §2, §3, §4, §5

## CCN(CC)C(=O)n1cnc(S(=O)(=O)C(F)(F)C(=O)c2ccccc2)n1 [Example 6]
[1]
  PPI activity GR80, BRAPP: 300 g/ha
[2]
  PPI activity GR80, AGSST: 100 g/ha
[3]
  PPI activity GR80, POLCO: 300 g/ha
[4]
  PPI activity GR80, STEME: 100 g/ha
[5]
  PPI activity GR80, LOLMG: 300 g/ha
[6]
  PPI activity GR80, GALAP: 100 g/ha

## CCN(CC)C(=O)n1cnc(S(=O)(=O)C(F)(F)C(F)(F)SC)n1 [Example 14]
[7]
  Post-emergence activity GR80, SETVI: [empty]

## CCN(CC)C(=O)n1cnc(S(=O)(=O)C(F)(F)C(F)F)n1 [Example 16]
[1]; 10 g/ha
  Percent inhibition BRAPP: 20%
[1]; 30 g/ha
  Percent inhibition BRAPP: 60%
[1]; 100 g/ha
  Percent inhibition BRAPP: 100%
[1]; 300 g/ha
  Percent inhibition BRAPP: 100%
[1]; 900 g/ha
  Percent inhibition BRAPP: 100%
[1]
  PPI activity GR80, BRAPP: 10 g/ha
[2]
  PPI activity GR80, AGSST: 10 g/ha
[2]; 10 g/ha
  Percent inhibition AGSST: 100%
[2]; 30 g/ha
  Percent inhibition AGSST: 100%
[2]; 100 g/ha
  Percent inhibition AGSST: 100%
[2]; 300 g/ha
  Percent inhibition AGSST: 100%
[2]; 900 g/ha
  Percent inhibition AGSST: 100%
[3]
  PPI activity GR80, POLCO: 100 g/ha
[3]; 10 g/ha
  Percent inhibition POLCO: 0%
[3]; 30 g/ha
  Percent inhibition POLCO: 0%
[3]; 100 g/ha
  Percent inhibition POLCO: 0%
[3]; 300 g/ha
  Percent inhibition POLCO: 0%
[3]; 900 g/ha
  Percent inhibition POLCO: 95%
[4]
  PPI activity GR80, STEME: 300 g/ha
[4]; 10 g/ha
  Percent inhibition STEME: 40%
[4]; 30 g/ha
  Percent inhibition STEME: 75%
[4]; 100 g/ha
  Percent inhibition STEME: 60%
[4]; 300 g/ha
  Percent inhibition STEME: 60%
[4]; 900 g/ha
  Percent inhibition STEME: 95%
[5]
  PPI activity GR80, LOLMG: 300 g/ha
[5]; 10 g/ha
  Percent inhibition LOLMG: 45%
[5]; 30 g/ha
  Percent inhibition LOLMG: 35%
[5]; 100 g/ha
  Percent inhibition LOLMG: 90%
[5]; 300 g/ha
  Percent inhibition LOLMG: 95%
[5]; 900 g/ha
  Percent inhibition LOLMG: 100%
[8]; 10 g/ha
  Percent inhibition HORVX: 0%
[8]; 30 g/ha
  Percent inhibition HORVX: 0%
[8]; 100 g/ha
  Percent inhibition HORVX: 10%
[8]; 300 g/ha
  Percent inhibition HORVX: 25%
[8]; 900 g/ha
  Percent inhibition HORVX: 20%
[9]; 10 g/ha
  Percent inhibition ORYSA: 0%
[9]; 30 g/ha
  Percent inhibition ORYSA: 0%
[9]; 100 g/ha
  Percent inhibition ORYSA: 30%
[9]; 300 g/ha
  Percent inhibition ORYSA: 90%
[9]; 900 g/ha
  Percent inhibition ORYSA: 100%
[10]; 10 g/ha
  Percent inhibition ZEAMX: 0%
[10]; 30 g/ha
  Percent inhibition ZEAMX: 5%
[10]; 100 g/ha
  Percent inhibition ZEAMX: 20%
[10]; 300 g/ha
  Percent inhibition ZEAMX: 40%
[10]; 900 g/ha
  Percent inhibition ZEAMX: 80%
[6]
  PPI activity GR80, GALAP: 100 g/ha
[6]; 10 g/ha
  Percent inhibition GALAP: 0%
[6]; 30 g/ha
  Percent inhibition GALAP: 20%
[6]; 100 g/ha
  Percent inhibition GALAP: 100%
[6]; 300 g/ha
  Percent inhibition GALAP: 100%
[6]; 900 g/ha
  Percent inhibition GALAP: 100%
